Measurements reported in patent US20250340529A1, “Heterocyclic Compounds as Immunomodulators of PD-L1 Interactions” (Ascletis BioScience Co., Ltd, priority 2021, published 2025).

How the values were obtained:
PD-L1/CHO-K1 cells = PD-L1/CHO-K1 cells (Homo sapiens (Human), UniProt Q9NZQ7); test: PD-L1 internalization (FACS, PD-L1/CHO-K1 cells); format: cell-based; details: % activation of PD-L1 internalization = 1 − PD-L1 signal; 17 hours incubation
Procedure: Day 1. Seeding cells: Digest the PD-L1/CHO-K1 cells by trypsin in the flask, then counting the cell number and diluted to 1×10^5 cells/ml. Seeding cells to 6 well plate (Corning, #3516), 2 mL/well. The plates were incubated at 37° C., […] incubator for 24 hours.
Day 2. Preparing compounds and treated cells: Dilute GLC01-258 from 15 mM to 0.5 mM by using DMSO, and 15 mM compound were serial diluted from 15 mM˜15 nM by DMSO, Then 500 times dilute the compounds by using assay buffer. Prepare 0.2% DMSO in assay buffer used for Vehicle control and low control. Take out the plates, aspirated the medium and thrown away. Adding 2 mL of the diluted compounds, vehicle control and low control to corresponding wells. Then incubated the plates for 17 hours at 37° C., 5% CO2 incubator.
Day 3. Preparing samples for FACS: After 17 hours incubation, discarded medium and washed by the PBS. Cells in each well were Digested by trypsin. Centrifuge and discard the supernatant, then wash the cells by DPBS (Ca^2+, Mg^2+ free) for twice. 10 fold dilute the antibody (PE-conjugated mouse anti-human CD274) by DPBS, then adding the staining solution to compounds treated samples and vehicle control sample. The low control only add DPBS without antibody. Incubate the plates at room temperature for 20 minutes and protect from light. After 20 minutes, wash the samples by DPBS for twice. Then centrifuge and discard the supernatant. Resuspend cells by 300 uL DPBS and transfer the samples to 5 mL Polystryrene Round-Bottom Tube (Falcon, #352054), then tested by BD FACSCanto. […].
Set the PD-L1 signal of vehicle control as 100%, PD-L1 signal of Low control as 0%. Then calculate the compound treated samples' PD-L1 signal
0% PD-L1 signal: Low control which stained without anti-CD274
100% PD-L1 Signal: vehicle control which stained with anti-CD274
The % activation of PD-L1 Internalization=1−PD-L1 signal of compound.

PD-1/PD-L1 = PD-1/PD-L1 (Homo sapiens (Human), UniProt Q9NZQ7); test: PD-1/PD-L1 Homogeneous Time-Resolved Fluorescence (HTRF) binding assay; details: 3 nM PD1, 10 nM PD-L1, 25° C., PBS pH 7.4
Sequence of PD-1/PD-L1 (Q9NZQ7 19-238): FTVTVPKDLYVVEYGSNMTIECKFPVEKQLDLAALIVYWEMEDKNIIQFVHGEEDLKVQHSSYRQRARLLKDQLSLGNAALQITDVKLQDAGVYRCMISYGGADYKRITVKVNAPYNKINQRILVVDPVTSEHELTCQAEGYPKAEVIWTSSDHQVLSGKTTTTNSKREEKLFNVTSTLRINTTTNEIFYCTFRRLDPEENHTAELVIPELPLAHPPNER
Procedure: PD-1/PD-L1 Homogeneous Time-Resolved Fluorescence (HTRF) Binding Assay
The assays were conducted in a standard black 384-well polystyrene plate with a final volume of 20 μL. Inhibitors were first serially diluted in DMSO and then added to the plate wells before the addition of other reaction components. The final concentration of DMSO in the assay was 1%. The assays were carried out at 25° C. in the PBS buffer (pH 7.4) with 0.05% Tween-20 and 0.1% BSA. Recombinant human PD-L1 protein (19-238) with a Histag at the C-terminus was purchased from AcroBiosystems (PD1-H5229). Recombinant human PD-1 protein (25-167) with Fe tag at the C-terminus was also purchased from AcroBiosystems (PD1-H5257). PD-L1 and PD-1 proteins were diluted in the assay buffer and 10 μL was added to the plate well. Plates were centrifuged and proteins were preincubated with inhibitors for 40 minutes. The incubation was followed by the addition of 10 μL of HTRF detection buffer supplemented with Europium cryptate-labeled anti-human IgG (PerkinElmer-AD0212) specific for Fe and anti-His antibody conjugated to SureLight®-Allophycocyanin (APC, PerkinElmer-AD0059H). After centrifugation, the plate was incubated at 25° C. for 60 min. before reading on a PHERAstar FS plate reader (665 nm/620 nm ratio). Final concentrations in the assay were—3 nM PD1, 10 nM PD-L1, 1 nM europium anti-human IgG and 20 nM anti-His-Allophycocyanin. IC50 determination was performed by fitting the curve of percent control activity versus the log of the inhibitor concentration.

Sequence of PD-L1/CHO-K1 cells (Q9NZQ7 19-290): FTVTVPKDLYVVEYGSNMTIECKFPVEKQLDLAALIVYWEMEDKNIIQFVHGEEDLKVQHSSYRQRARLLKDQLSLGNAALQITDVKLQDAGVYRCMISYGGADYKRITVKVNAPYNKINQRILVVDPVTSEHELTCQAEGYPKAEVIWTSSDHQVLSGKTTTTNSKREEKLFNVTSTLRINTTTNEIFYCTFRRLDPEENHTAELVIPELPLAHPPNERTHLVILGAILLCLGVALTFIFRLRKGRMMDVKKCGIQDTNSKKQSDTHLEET

SMILES	Internalization (PD-L1/CHO-K1 cells) [%]	IC50 (PD-1/PD-L1) [nM]
O=C1CC(CN2C(=O)COc3cc(-c4cccc(-c5cccc(-c6ccc7c(c6)OCC(=O)N7CC6CNC(=O)C6)c5Cl)c4Cl)ccc32)CN1 (stereo not shown) [Compound 373]	3.20	3.79
O=C1CC[C@@H](CN2C(=O)COc3cc(-c4cccc(-c5cccc(-c6cc7c(cc6F)N(C[C@@H]6CCC(=O)N6)C(=O)CO7)c5Cl)c4Cl)c(F)cc32)N1 [Compound 388]	6.10	1.1
O=C1CC[C@@H](CN2C(=O)COc3c2ccc(-c2cccc(-c4cccc(-c5ccc6c(c5F)OCC(=O)N6C[C@@H]5CCC(=O)N5)c4Cl)c2Cl)c3F)N1 [Compound 395]	2.50	6.26
CN1CC(=O)N(C[C@@H]2CCC(=O)N2)c2ccc(-c3cccc(-c4cccc(-c5ccc6c(c5)N(C)CC(=O)N6C[C@@H]5CCC(=O)N5)c4Cl)c3Cl)cc21 [Compound 402]	2.40	1.98
O=C1COc2cc(-c3cccc(-c4cccc(-c5ccc6c(c5)OCC(=O)N6CCNCCO)c4Cl)c3Cl)ccc2N1CCNCCO [Compound 445]	20.50	5.01
CC(CO)(NCCN1C(=O)COc2cc(-c3cccc(-c4cccc(-c5ccc6c(c5)OCC(=O)N6CCNC(C)(CO)C(=O)O)c4Cl)c3Cl)ccc21)C(=O)O (stereo not shown) [Compound 475]	31.50	3.23
O=C1COc2cc(-c3cccc(-c4cccc(-c5ccc6c(c5)OCC(=O)N6CCN5CC[C@H](O)C5)c4Cl)c3Cl)ccc2N1CCN1CC[C@H](O)C1 [Compound 476]	6.10	5.22
O=C(O)[C@@H](CO)NCCN1C(=O)COc2cc(-c3cccc(-c4cccc(-c5ccc6c(c5)OCC(=O)N6CCN[C@H](CO)C(=O)O)c4Cl)c3Cl)ccc21 [Compound 483]	19.80	6.31
Cc1c(-c2ccc3c(c2)OCC(=O)N3CCN2C[C@H](O)C[C@H]2C(=O)O)cccc1-c1cccc(-c2ccc3c(c2)OCC(=O)N3CCN2C[C@H](O)C[C@H]2C(=O)O)c1C [Compound 514]		4.46
O=C1COc2cc(-c3cccc(-c4cccc(-c5ccc6c(c5)OCC(=O)N6C[C@@H]5CCCN5)c4Cl)c3Cl)ccc2N1CCN1CC[C@H](O)C1 [Compound 515]		8.71
O=C1COc2cc(-c3cccc(-c4cccc(-c5ccc6c(c5)OCC(=O)N6C[C@@H]5CC(F)(F)CN5)c4Cl)c3Cl)ccc2N1C[C@@H]1CC(F)(F)CN1 [Compound 530]	1.60	76.9
O=C1COc2cc(-c3cccc(-c4cccc(-c5ccc6c(c5)OCC(=O)N6C[C@H]5CCNC5)c4Cl)c3Cl)ccc2N1C[C@H]1CCNC1 [Compound 531]		7.22
C[C@H](NCCN1C(=O)COc2cc(-c3cccc(-c4cccc(-c5ccc6c(c5)OCC(=O)N6CCN[C@@H](C)C(=O)O)c4Cl)c3Cl)ccc21)C(=O)O [Compound 536]	7.90	4.31
O=C(O)[C@@H](O)CNCCN1C(=O)COc2cc(-c3cccc(-c4cccc(-c5ccc6c(c5)OCC(=O)N6CCNC[C@H](O)C(=O)O)c4Cl)c3Cl)ccc21 [Compound 553]	9.40	
O=C1COc2cc(-c3cccc(-c4cccc(-c5ccc6c(c5)OCC(=O)N6C[C@@H]5CCCCN5)c4Cl)c3Cl)ccc2N1C[C@@H]1CCCCN1 [Compound 558]		10.6
NC(=O)C[C@H](NCCN1C(=O)COc2cc(-c3cccc(-c4cccc(-c5ccc6c(c5)OCC(=O)N6CCN[C@@H](CC(N)=O)C(=O)O)c4Cl)c3Cl)ccc21)C(=O)O [Compound 570]		10.9
CC(C)(C)OC[C@H](NCCN1C(=O)COc2cc(-c3cccc(-c4cccc(-c5ccc6c(c5)OCC(=O)N6CCN[C@@H](COC(C)(C)C)C(=O)O)c4Cl)c3Cl)ccc21)C(=O)O [Compound 571]		16
O=C(O)C1CCC(=O)N1CCN1C(=O)COc2cc(-c3cccc(-c4cccc(-c5ccc6c(c5)OCC(=O)N6CCN5C(=O)CCC5C(=O)O)c4Cl)c3Cl)ccc21 (stereo not shown) [Compound 573]		287
O=C(O)[C@H](CO)NCCN1C(=O)COc2cc(-c3cccc(-c4cccc(-c5ccc6c(c5)OCC(=O)N6CCN[C@@H](CO)C(=O)O)c4F)c3F)ccc21 [Compound 613, (2S,2'S)-2,2′-((((2,2′-difluoro-[1,1′-biphenyl]-3,3′-diyl)bis(3-oxo-2,3-dihydro-4H-benzo[b][1,4]oxazine-7,4-diyl))bis(ethane-2,1-diyl))bis(azanediyl))bis(3-hydroxypropanoic acid)]	4.80	

More lines, in order of falling IC50 (PD-1/PD-L1), values ahead:

Internalization (PD-L1/CHO-K1 cells) [%]	IC50 (PD-1/PD-L1) [nM]	SMILES
	10.5	CC(=O)NCCNCCN1C(=O)COc2cc(-c3cccc(-c4cccc(-c5ccc6c(c5)OCC(=O)N6C[C@@H]5CCCN5)c4Cl)c3Cl)ccc21 [Compound 516]
1.90	9.9	CN(CCN1C(=O)COc2cc(-c3cccc(-c4cccc(-c5ccc6c(c5)OCC(=O)N6CCN(C)C[C@@H]5CCC(=O)N5)c4Cl)c3Cl)ccc21)C[C@@H]1CCC(=O)N1 [Compound 460]
	9.41	O=C1C[C@@H](NCCN2C(=O)COc3cc(-c4cccc(-c5cccc(-c6ccc7c(c6)OCC(=O)N7CCN[C@H]6COC(=O)C6)c5Cl)c4Cl)ccc32)CO1 [Compound 527]
	8.98	O=C1COc2cc(-c3cccc(-c4cccc(-c5ccc6c(c5)OCC(=O)N6C[C@@H]5COCCN5)c4Cl)c3Cl)ccc2N1C[C@@H]1CCCCN1 [Compound 559]
22.80	7.46	Cl.O=C1CC[C@@H](CN2C(=O)COc3cc(-c4cccc(-c5cccc(-c6ccc7c(c6)OCC(=O)N7C[C@@H]6CCCN6)c5Cl)c4Cl)ccc32)N1 [Compound 517]
5.70	5.48	O=C(O)CCNCCCN1C(=O)COc2cc(-c3cccc(-c4cccc(-c5ccc6c(c5)OCC(=O)N6CCCNCCC(=O)O)c4Cl)c3Cl)ccc21 [Compound 480]
20.90	4.9	O=C(O)CCNCCN1C(=O)COc2cc(-c3cccc(-c4cccc(-c5ccc6c(c5)OCC(=O)N6CCNCCC(=O)O)c4Cl)c3Cl)ccc21 [Compound 468]
8.70	4.69	O=C(O)C1CCN(CCN2C(=O)COc3cc(-c4cccc(-c5cccc(-c6ccc7c(c6)OCC(=O)N7CCN6CC[C@H](O)C6)c5Cl)c4Cl)ccc32)C1 (stereo partly drawn) [Compound 481, 1-(2-(7-(2,2′-dichloro-3′-(4-(2-((S)-3-hydroxypyrrolidin-1-yl)ethyl)-3-oxo-3,4-dihydro-2H-benzo[b][1,4]oxazin-7-yl)-[1,1′-biphenyl]-3-yl)-3-oxo-2,3-dihydro-4H-benzo[b][1,4]oxazin-4-yl)ethyl)pyrrolidine-3-carboxylic acid]
3.50	4.19	O=C1COc2cc(-c3cccc(-c4cccc(-c5ccc6c(c5)OCC(=O)N6C[C@@H]5CCNC5)c4Cl)c3Cl)ccc2N1C[C@@H]1CCNC1 [Compound 503]
12.20	3.89	O=C1CC[C@@H](CNCCN2C(=O)COc3cc(-c4cccc(-c5cccc(-c6ccc7c(c6)OCC(=O)N7CCNC[C@@H]6CCC(=O)N6)c5Cl)c4Cl)ccc32)N1 [Compound 449]
20.90	2.28	O=C(O)CC(O)CNCCN1C(=O)COc2cc(-c3cccc(-c4cccc(-c5ccc6c(c5)OCC(=O)N6CCNCC(O)CC(=O)O)c4Cl)c3Cl)ccc21 (stereo not shown) [Compound 470]
5.50	2.16	O=C1CC[C@@H](CN2C(=O)CNc3cc(-c4cccc(-c5cccc(-c6ccc7c(c6)NCC(=O)N7C[C@@H]6CCC(=O)N6)c5Cl)c4Cl)ccc32)N1 [Compound 363]
6.80	1.46	O=C1CC[C@@H](CN2C(=O)COc3cc(-c4cccc(-c5cccc(-c6ccc7c(c6)OCC(=O)N7C[C@@H]6CCC(=O)N6)c5Cl)c4Cl)ccc32)N1 [Compound 338]
